Like-named read-outs stand apart in the source and are kept apart here. Marks after values point to notes of the source that are not given here.
Experiments:
FKBP12 = FKBP12 (Homo sapiens, UniProt P62942); assay: Inhibition of FKBP peptidyl-prolyl isomerase (rotamase) activity, apparent Ki; type: biochemical
From the text: The inhibition of the prolyl peptidyl cis-trans isomerase activity of FKBP may be measured as an indicator of this affinity.
These values are obtained as apparent Ki's.
The cis-trans isomerization of an alanine-proline bond in a model substrate, N-succinyl-Ala-Ala-Pro-Phe-p-nitroanilide, is monitored spectrophotometrically in a chymotrypsin-coupled assay, which releases para-nitroanilide from the trans form of the substrate. The inhibition of this reaction caused by the addition of different concentrations of inhibitor is determined, and the data is analyzed as a change in first-order rate constant as a function of inhibitor concentration to yield the apparent Ki values.
In a plastic cuvette are added 950 mL of ice cold assay buffer (25 mM HEPES, pH 7.8, 100 mM NaCl), 10 mL of FKBP (2.5 mM in 10 mM Tris-Cl pH 7.5, 100 mM NaCl, 1 mM dithiothreitol), 25 mL of chymotrypsin (50 mg/ml in 1 mM HCl) and 10 mL of test compound at various concentrations in dimethyl sulfoxide. The reaction is initiated by the addition of 5 mL of substrate (succinyl-Ala-Phe-Pro-Phe-para-nitroanilide, 5 mg/mL in 2.35 mM LiCl in trifluoroethanol).
The absorbance at 390 nm versus time is monitored for 90 seconds using a spectrophotometer and the rate constants are determined from the absorbance versus time data files.

[1] = test system: retinal ganglion cells and optic nerve axons; assay: In vivo retinal ganglion cell and optic nerve axon tests after optic nerve transection; settings: for Efficacy in protecting retinal ganglion cell axons from degeneration following optic nerve transection: Table V; for RGC Counts (mean density of Fluoro-gold labeled retinal ganglion cells in 400 μm × 400 μm fields): 10 mg/kg/day sc;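 on all read-outs here: adult male Sprague Dawley rats with bilateral intraorbital optic nerve transection after retrograde fluorogold labeling of retinal ganglion cells, examined on fixed retinas and optic nerve stumps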
Protocol: The extent of degeneration reduction or prevention in retinal ganglion cells and optic nerve axons was determined in a vision loss model utilizing surgical optic nerve transection to simulate mechanical damage to the optic nerve. The effects of several neuroimmunophilin FKBP ligands on retinal ganglion cells neuroprotection and optic nerve axon density was determined experimentally, comparing 14 day and 28 day neuroimmunophilin FKBP ligand treatments.
Retinal ganglion cells were pre-labeled by bilateral stereotaxic injection of the fluorescent retrogradely transported marker fluoro-gold (FG, 0.5 microliters of 2.5% solution in saline) at the coordinates of the LGNd (4.5 millimeters post β, 3.5 millimeters lateral, 4.6 millimeters below dura). Four days later, FG labeled rats underwent a second surgery for microsurgical bilateral intraorbital optic nerve transection 4-5 millimeters behind the orbit.
Experimental animals were divided into six experimental groups of six rats (12 eyes) per group. […] A second group received the same neuroimmunophilin FKBP ligand dose for 28 days.
All animals were sacrificed 90 days after optic nerve transection and perfused pericardially with formalin. All eyes and optic nerves stumps were removed. Cases were excluded from the study if the optic nerve vasculature was damaged or if FG labeling was absent in the retina.
Retinas were removed from eyes and prepared for wholemount analysis. For each group, five eyes with dense and intense FG labeling were selected for quantitative analysis using a 20 power objective. Digital images were obtained from five fields in the central retina (3-4 millimeters radial to optic nerve head).
Proximal and distal optic nerve stumps were identified, measured, and transferred to 30% sucrose saline. […] Sections including the region 1-2 mm behind the orbit were reacted for RT97 neurofilament immunohistochemistry. Analysis of optic nerve axon density was performed using a 63 power oil immersion lens, a Dage 81 camera, and the Simple Image Analysis program. RT97 positive optic nerve axons were counted in three 200 μm by 200 μm fields per nerve. The area of the nerve was also determined for each case at 10 power.

[2] = Clearance (Table V comments, no method given); type: in vitro ADME
aged mice = assay: Morris watermaze spatial learning and memory in aged rodents; type: in vivo; settings: aged impaired mice, 10 mg/kg daily, retention testing after 3 weeks of dosing
From the text: The Morris watermaze is widely used for assessing spatial memory formation and retention in experimental animals. The test depends on the animals ability to utilize spatial visual information in order to locate a submerged escape platform in a water tank. It is important that the tank itself be as devoid of specific visual features as possible—thus, it is always circular in shape, the sides are kept smooth and in uniform dull colors, and the water is rendered opaque with nontoxic watercolor pigment or powdered milk. This is to ensure that the animal navigates only by the use of more distant visual cues, or by the use of intra-maze cues specifically provided by the experimenter. The animals' path, speed, and swim time are tracked with a ceiling camera for later computerized analysis. Over the course of several successive trials, spatial learning can therefore be defined as a drop of distance swum, or time elapsed, from placement in the tank until escape onto the invisible platform. The procedure involved using-three-month old (young) and 18-19 month old male C57BL/6Nia aged) mice which habituated to the well known and conventional Morris watermaze during a 4 trials/day, 3-4 day visible platform training phase. […] Swim Distances (cm) were analyzed in a 7×5 ANOVA including Groups and Blocks (1-5) as factors in the analysis, treating Blocks as a repeated measure.

retinal ganglion cells = assay: Retinal ischemia: degeneration of retinal ganglion cells, optic nerve axons and myelin; type: in vivo, rat; settings: 10 mg/kg s.c. 1 hour prior to ischemia and 10 mg/kg/day for next four days, 28 days after ischemia
From the text: Retinal ganglion cells were retrogradely labeled in adult rats by bilateral injection of fluorogold in their lateral geniculate nuclei. Labeled ganglion cells in the normal rat retina appear as white profiles against the dark background (FIG. 1A). Complete retinal ischemia was produced by infusing normal saline solution into the retinal vitreous cavity of each eye until the intraocular pressure exceeded arterial blood pressure. 28 days after the ischemic episode extensive degeneration of retinal ganglion cell was evidenced by massive reduction in the density of fluorogold labeled cells (FIG. 1B).

[3] = Table V comments, read-out: Ki rotomase
[4] = ONT, 14 days treatment, 90 days after transection, ± SEM
[5] = ONT, 14 days treatment, 90 days after transection
[6] = ONT, 28 days treatment, 90 days after transection
[7] = ONT, 28 days treatment, 90 days after transection, ± SEM

FKBP12, sequence (P62942 whole entry, species assumed): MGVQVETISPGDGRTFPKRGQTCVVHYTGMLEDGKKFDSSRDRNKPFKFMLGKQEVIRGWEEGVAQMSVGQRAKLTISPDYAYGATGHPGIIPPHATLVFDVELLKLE

SMILES: CCC(C)(C)C(=O)C(=O)N1CCC[C@H]1C(=O)OCCCc1ccc[n+]([O-])c1 [Compound 1, 3-(3-Pyridyl)-1-propyl(2S)-1-(1,1-Dimethyl-1,2-dioxopentyl)-2-pyrrolidine-carboxylate, N-oxide]
- Ki (FKBP12; Table B, rotamase inhibition, read-out: Ki): 0.225 µM

SMILES: O=C(SCCCc1ccccc1)C1CCCN1S(=O)(=O)Cc1ccccc1 (centres unmarked) [C]
- Efficacy in protecting retinal ganglion cell axons from degeneration following optic nerve transection ([1]; ± SEM): 60.4% ± 3.1 SEM

SMILES: CCC(C)(C)C(=O)C(=O)N1CCCCC1C(=O)SCCC(c1ccccc1)c1ccccc1 (centres unmarked) [Compound K]
- Efficacy in protecting retinal ganglion cell axons from degeneration following optic nerve transection ([1]; ± SEM): 13.0% ± 4.2% SEM
- Clearance [2]: 4.5 µL/min

SMILES: O=C(SCCCc1ccccc1)C1CCCN1C(=O)NC12CC3CC(CC(C3)C1)C2 (centres unmarked) [B]
- Efficacy in protecting retinal ganglion cell axons from degeneration following optic nerve transection ([1]; ± SEM): 100.0% ± 5.2% SEM

SMILES: CN(C)C(=O)N1CCCC1C(=O)SCCCc1ccccc1 (centres unmarked) [N]
- Clearance ([2]; unit printed μl/ml): 21.9 μl/ml

SMILES: O=C(OCCCc1cccnc1)[C@@H]1CCCN1C(=S)NC1CCCCC1 [I]
- Efficacy in protecting retinal ganglion cell axons from degeneration following optic nerve transection ([1]; ± SEM): 23.8% ± 5.3 SEM

SMILES: CCC(C)(C)C(=O)C(=O)N1CCCC1C(=O)O (centres unmarked) [L]
- Ki (FKBP12; [3]): > 7.74 µM
- Efficacy in protecting retinal ganglion cell axons from degeneration following optic nerve transection ([1]; ± SEM): 7.8% ± 3.0% SEM

SMILES: CCC(C)(C)C(=O)C(=O)N1CCCCC1C(=O)O (centres unmarked) [G]
- Ki (FKBP12; [3]): > 10 µM
- Efficacy in protecting retinal ganglion cell axons from degeneration following optic nerve transection ([1]; ± SEM): 34.0% ± 4.8% SEM

SMILES: CCC(C)(C)C(=O)C(=O)N1CCC[C@H]1C(=O)OCCCc1cccnc1 [GPI 1046]
- spatial memory performance (swim distance) in retention testing (aged mice): significantly enhanced spatial memory performance
- preservation of axons of protected neurons in the proximal stump ([1]; Example 13, 10 mg/kg/day s.c. for 28 days, 90 days after transection): preserved the axons of virtually all protected neurons
- perikaryal neuroprotection: ganglion cell population spared ([1]; Example 13, 10 mg/kg/day s.c. for 28 days, sacrificed 90 days after transection): 25%
- RGC Counts (mean density of Fluoro-gold labeled retinal ganglion cells in 400 μm × 400 μm fields) [1, 4]: small but not significant increase
- Distal optic nerve myelin basic protein Density, loss [1, 5]: slightly increase the density of myelin
- Distal optic nerve stump shrinkage (cross sectional area vs sham) [1, 5]: did not protect against shrinkage of the distal stump
- ON axon Count (axonal density multiplied by ON area) [1, 5]: 6820
- increased ON axon density (adjusted for optic nerve diameter) [1, 5]: 1.5×
- ON Axon density (RT97 labeled optic nerve axons in 200 μm × 200 μm region) [1, 4]: 569 ± 23
- Proximal optic nerve myelin basic protein Density, % recovery [1, 4]: 1.6 ± 3.0 SEM % recovery
- RGC Counts (mean density of Fluoro-gold labeled retinal ganglion cells in 400 μm × 400 μm fields) ([1]; ONT, 28 days treatment, 90 days after transection, SEM): 67.9 ± 5.8
- Distal optic nerve stump, less shrinkage [1, 6]: prevented cross sectional shrinkage of the distal stump
- ON axon Count (axonal density multiplied by ON area) [1, 6]: 22,861*
- increased ON axon density (adjusted for optic nerve diameter) [1, 6]: 5.0×
- ON Axon density (RT97 labeled optic nerve axons in 200 μm × 200 μm region) [1, 7]: significant increase
- Proximal optic nerve myelin basic protein Density, % recovery [1, 7]: 70 ± 6.3 SEM % recovery
- Efficacy in protecting retinal ganglion cell axons from degeneration following optic nerve transection ([1]; ± SEM): 60.5% ± 3.9 SEM
- Clearance [2]: 63.8 µL/min
- protection of fluorogold labeled retinal ganglion cells (retinal ganglion cells): noticeable protection of a large proportion of the vulnerable ganglion cell population

SMILES: CCC(C)(C)C(=O)C(=O)N1CCCCC1C(N)=O (centres unmarked) [H]
- Efficacy in protecting retinal ganglion cell axons from degeneration following optic nerve transection ([1]; ± SEM): 30.3% ± 8.0% SEM

SMILES: CCC(C)(C)C(=O)C(=O)N1CCC[C@H]1C(=O)SCCC(c1ccccc1)c1ccccc1 [M]
- Efficacy in protecting retinal ganglion cell axons from degeneration following optic nerve transection ([1]; ± SEM): −6.3% + 3.9% SEM

SMILES: CCC(C)(C)C(=O)C(=O)N1CCCC1C(=O)CCCCc1cccnc1 (centres unmarked) [J]
- Efficacy in protecting retinal ganglion cell axons from degeneration following optic nerve transection ([1]; ± SEM): 15.8% ± 4.8% SEM
- Clearance [2]: 1.5 µL/min

SMILES: CCC(C)(C)C(=O)C(=O)N1CCCCC1C(=O)OC(CCc1ccccc1)CCc1ccccc1 (centres unmarked) [E]
- Clearance ([2]; unit printed μl/ml): 41.8 μl/ml

Reference: patent publication US6399648B1, “N-oxides of heterocyclic ester, amide, thioester, or ketone for vision and memory disorders” (GPI NIL Holdings, Inc., priority 1998, dated 2002)
